From ChEMBL document CHEMBL5291721, “A preclinical secondary pharmacology resource illuminates target-adverse drug reaction associations of marketed drugs” (Nat Commun, 2023) come the findings set out here.

Some results are limits rather than exact numbers.

For orientation: AC50 means the midpoint of the concentration-response curve, whichever way the signal moves.

Some targets named below: Histamine H3 receptor (Homo sapiens, UniProt Q9Y5N1); Mu-type opioid receptor (Homo sapiens, UniProt P35372); D(3) dopamine receptor (Homo sapiens, UniProt P35462).
Test [1] addresses T1, Prostaglandin G/H synthase 1 (Homo sapiens, UniProt P23219). The format is functional.
Test [2] deals with Voltage-gated inwardly rectifying potassium channel KCNH2 (Homo sapiens, UniProt Q12809). Type of test: functional. The following applies: read-out: AC50.
Chain of Voltage-gated inwardly rectifying potassium channel KCNH2 (Q12809 whole entry): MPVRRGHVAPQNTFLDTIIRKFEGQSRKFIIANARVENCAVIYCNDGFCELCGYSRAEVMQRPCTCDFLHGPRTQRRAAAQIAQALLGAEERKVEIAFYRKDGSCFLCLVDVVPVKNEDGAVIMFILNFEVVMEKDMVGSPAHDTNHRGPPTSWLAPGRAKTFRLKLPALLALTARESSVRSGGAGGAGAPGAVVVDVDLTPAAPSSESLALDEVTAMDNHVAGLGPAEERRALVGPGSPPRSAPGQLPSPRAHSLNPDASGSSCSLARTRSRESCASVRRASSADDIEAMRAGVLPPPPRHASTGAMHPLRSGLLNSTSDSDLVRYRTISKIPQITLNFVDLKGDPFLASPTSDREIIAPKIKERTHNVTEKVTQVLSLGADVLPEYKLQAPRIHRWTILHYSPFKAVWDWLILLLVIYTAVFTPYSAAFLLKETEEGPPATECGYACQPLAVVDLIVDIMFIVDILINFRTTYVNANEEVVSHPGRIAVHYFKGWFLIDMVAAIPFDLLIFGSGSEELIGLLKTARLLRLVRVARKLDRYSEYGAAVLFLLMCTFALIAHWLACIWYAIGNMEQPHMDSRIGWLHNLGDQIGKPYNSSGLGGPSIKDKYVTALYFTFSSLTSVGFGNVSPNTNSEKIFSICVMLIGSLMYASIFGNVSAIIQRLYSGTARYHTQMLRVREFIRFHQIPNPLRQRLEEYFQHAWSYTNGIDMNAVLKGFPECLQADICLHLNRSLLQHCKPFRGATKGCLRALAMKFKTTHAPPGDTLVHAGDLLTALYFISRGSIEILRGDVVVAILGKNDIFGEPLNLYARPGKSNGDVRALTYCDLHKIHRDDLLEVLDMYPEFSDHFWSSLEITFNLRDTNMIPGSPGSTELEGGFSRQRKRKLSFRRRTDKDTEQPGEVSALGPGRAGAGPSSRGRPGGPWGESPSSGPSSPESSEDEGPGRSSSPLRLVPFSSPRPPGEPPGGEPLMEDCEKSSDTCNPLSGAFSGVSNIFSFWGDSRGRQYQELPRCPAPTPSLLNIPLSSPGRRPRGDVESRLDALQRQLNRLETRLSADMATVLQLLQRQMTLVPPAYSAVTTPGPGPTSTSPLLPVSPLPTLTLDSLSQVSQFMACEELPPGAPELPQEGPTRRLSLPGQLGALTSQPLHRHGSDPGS
The target of the next test is T2, Progesterone receptor (Homo sapiens, UniProt P06401).
T2 sequence (P06401 whole entry): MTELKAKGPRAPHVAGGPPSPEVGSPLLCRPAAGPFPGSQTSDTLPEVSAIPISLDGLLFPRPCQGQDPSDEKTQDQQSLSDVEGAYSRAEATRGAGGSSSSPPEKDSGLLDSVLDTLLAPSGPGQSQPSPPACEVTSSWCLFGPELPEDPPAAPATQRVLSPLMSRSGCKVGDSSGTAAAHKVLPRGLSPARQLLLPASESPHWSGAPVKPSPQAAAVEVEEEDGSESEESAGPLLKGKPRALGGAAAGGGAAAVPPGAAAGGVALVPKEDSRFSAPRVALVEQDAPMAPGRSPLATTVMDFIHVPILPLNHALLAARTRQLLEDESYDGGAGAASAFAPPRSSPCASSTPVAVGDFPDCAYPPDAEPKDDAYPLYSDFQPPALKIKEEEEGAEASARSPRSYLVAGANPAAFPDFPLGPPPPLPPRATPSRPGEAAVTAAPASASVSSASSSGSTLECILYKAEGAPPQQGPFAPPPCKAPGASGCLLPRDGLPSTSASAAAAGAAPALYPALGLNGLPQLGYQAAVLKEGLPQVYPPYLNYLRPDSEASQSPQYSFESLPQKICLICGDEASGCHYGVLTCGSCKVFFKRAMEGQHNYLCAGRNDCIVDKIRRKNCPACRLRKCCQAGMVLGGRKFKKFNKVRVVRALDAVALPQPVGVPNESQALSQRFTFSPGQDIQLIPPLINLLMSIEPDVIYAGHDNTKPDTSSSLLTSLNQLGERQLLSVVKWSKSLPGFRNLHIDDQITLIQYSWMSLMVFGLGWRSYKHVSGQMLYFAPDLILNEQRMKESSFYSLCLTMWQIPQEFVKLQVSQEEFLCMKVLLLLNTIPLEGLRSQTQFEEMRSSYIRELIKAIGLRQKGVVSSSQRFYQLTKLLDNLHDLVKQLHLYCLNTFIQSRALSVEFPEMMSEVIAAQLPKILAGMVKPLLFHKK

For test [3], the target named is cGMP-inhibited 3',5'-cyclic phosphodiesterase 3A (Homo sapiens, UniProt Q14432). Type of test: functional.
Test [4] deals with Sodium-dependent noradrenaline transporter (Homo sapiens, UniProt P23975).
Chain of Sodium-dependent noradrenaline transporter (P23975 whole entry): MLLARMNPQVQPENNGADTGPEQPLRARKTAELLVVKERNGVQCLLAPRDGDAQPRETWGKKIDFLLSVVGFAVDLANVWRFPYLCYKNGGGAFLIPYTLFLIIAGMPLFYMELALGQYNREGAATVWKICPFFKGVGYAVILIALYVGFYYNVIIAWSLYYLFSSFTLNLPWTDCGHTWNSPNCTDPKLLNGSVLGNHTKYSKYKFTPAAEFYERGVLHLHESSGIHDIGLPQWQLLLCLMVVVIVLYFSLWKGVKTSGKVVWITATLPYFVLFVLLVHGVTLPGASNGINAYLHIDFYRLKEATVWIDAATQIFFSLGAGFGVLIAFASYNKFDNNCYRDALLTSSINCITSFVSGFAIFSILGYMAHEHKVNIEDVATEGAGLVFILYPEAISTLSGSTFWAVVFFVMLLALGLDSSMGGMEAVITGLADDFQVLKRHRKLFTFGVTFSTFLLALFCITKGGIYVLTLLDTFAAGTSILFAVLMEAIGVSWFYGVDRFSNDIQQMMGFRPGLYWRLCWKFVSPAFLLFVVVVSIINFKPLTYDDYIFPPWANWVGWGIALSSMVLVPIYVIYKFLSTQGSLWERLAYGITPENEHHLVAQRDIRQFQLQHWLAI
Test [5] has as its target Sodium-dependent dopamine transporter (Homo sapiens, UniProt Q01959).
For a further test, the target named is T3, Estrogen receptor (Homo sapiens, UniProt P03372).
T3 sequence (P03372 whole entry): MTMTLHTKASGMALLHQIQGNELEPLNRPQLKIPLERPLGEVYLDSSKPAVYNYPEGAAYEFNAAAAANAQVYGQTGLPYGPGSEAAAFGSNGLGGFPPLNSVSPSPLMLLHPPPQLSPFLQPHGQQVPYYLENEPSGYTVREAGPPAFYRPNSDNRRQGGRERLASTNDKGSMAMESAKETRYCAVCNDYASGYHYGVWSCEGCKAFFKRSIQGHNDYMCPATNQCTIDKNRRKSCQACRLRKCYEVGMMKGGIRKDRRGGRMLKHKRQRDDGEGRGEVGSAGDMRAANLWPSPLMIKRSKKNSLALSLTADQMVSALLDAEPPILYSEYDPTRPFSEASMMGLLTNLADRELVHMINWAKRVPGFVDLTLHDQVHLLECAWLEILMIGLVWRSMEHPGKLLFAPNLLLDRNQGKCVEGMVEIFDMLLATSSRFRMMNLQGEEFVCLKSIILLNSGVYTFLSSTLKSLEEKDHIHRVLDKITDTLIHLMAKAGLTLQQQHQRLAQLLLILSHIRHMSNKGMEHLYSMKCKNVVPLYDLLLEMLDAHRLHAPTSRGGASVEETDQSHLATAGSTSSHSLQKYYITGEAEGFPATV

The target of test [6] is T4, Amine oxidase [flavin-containing] A (Homo sapiens, UniProt P21397).
T4 sequence (P21397 whole entry): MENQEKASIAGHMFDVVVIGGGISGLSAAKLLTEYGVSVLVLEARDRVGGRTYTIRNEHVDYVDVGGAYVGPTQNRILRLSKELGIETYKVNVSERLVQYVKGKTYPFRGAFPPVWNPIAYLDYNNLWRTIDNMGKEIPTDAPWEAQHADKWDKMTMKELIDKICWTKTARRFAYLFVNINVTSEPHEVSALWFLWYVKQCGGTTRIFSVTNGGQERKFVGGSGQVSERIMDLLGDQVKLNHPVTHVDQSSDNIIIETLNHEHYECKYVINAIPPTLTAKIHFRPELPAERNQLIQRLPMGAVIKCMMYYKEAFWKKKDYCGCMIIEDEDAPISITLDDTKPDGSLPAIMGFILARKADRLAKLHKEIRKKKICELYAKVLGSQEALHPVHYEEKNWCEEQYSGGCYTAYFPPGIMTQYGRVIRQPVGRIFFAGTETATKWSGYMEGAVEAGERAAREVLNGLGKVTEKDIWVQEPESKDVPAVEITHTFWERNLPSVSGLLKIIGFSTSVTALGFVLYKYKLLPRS
The format is functional.

For test [7], the target named is Sodium-dependent serotonin transporter (Homo sapiens, UniProt P31645).
Chain of Sodium-dependent serotonin transporter (P31645 whole entry): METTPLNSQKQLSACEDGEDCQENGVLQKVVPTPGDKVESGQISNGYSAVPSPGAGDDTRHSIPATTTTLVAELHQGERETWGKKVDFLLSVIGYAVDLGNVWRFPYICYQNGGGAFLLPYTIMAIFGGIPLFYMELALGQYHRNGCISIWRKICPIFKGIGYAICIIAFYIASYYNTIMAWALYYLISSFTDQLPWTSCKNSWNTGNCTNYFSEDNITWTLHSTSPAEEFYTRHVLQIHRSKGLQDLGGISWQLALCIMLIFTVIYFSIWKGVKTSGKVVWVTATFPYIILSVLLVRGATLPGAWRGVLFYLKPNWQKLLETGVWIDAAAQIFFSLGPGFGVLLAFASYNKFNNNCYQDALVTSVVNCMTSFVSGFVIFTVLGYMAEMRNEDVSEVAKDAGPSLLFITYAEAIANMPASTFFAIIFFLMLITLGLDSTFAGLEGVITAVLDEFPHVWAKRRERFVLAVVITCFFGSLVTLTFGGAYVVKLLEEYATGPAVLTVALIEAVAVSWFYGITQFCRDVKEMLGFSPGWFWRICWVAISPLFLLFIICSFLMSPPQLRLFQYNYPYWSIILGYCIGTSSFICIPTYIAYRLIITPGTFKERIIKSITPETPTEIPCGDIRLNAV
Test [8] has as its target T1, Prostaglandin G/H synthase 1. Type of test: functional. This is another data set of the same source.
Further: assay procedure not described here.

T1 sequence (P23219 whole entry): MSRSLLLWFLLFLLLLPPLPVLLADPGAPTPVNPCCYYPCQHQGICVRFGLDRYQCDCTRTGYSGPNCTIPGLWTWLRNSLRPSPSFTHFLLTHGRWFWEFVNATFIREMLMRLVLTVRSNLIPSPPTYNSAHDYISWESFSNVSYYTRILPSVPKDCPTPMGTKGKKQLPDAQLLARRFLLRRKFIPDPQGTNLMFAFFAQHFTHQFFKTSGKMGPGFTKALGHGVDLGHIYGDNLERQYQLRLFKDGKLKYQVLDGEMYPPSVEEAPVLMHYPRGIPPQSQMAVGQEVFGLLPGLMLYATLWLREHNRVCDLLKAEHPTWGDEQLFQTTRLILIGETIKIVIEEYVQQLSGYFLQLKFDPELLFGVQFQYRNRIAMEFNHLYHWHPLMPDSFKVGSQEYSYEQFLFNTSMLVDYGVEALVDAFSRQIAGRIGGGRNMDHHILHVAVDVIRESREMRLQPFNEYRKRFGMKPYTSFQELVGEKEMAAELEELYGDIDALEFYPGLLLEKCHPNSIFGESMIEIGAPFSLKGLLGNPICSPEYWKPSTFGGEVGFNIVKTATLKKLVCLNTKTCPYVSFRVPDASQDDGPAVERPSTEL
Chain of Mu-type opioid receptor (P35372 whole entry): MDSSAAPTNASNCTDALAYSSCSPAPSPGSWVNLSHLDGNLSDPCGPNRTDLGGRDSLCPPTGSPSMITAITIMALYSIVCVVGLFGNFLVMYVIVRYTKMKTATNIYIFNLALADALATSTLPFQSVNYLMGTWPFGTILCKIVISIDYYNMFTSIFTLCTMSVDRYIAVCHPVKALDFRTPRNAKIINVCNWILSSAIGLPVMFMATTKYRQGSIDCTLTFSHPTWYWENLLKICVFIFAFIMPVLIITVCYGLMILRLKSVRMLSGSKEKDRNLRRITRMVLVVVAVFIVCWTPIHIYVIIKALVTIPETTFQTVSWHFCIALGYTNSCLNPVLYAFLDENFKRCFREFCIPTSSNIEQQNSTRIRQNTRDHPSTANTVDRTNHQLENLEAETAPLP
Chain of D(3) dopamine receptor (P35462 whole entry): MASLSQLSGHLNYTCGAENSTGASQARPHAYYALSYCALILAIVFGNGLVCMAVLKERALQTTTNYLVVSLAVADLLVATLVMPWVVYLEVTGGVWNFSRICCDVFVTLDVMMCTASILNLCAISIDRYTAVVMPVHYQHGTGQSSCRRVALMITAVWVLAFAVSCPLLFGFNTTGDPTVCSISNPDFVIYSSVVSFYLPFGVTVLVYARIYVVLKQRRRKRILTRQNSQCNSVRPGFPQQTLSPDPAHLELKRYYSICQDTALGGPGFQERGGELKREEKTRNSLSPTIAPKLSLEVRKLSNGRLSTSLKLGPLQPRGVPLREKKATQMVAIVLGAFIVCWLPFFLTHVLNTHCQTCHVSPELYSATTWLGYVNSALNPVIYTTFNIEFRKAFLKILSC
Chain of Sodium-dependent dopamine transporter (Q01959 whole entry): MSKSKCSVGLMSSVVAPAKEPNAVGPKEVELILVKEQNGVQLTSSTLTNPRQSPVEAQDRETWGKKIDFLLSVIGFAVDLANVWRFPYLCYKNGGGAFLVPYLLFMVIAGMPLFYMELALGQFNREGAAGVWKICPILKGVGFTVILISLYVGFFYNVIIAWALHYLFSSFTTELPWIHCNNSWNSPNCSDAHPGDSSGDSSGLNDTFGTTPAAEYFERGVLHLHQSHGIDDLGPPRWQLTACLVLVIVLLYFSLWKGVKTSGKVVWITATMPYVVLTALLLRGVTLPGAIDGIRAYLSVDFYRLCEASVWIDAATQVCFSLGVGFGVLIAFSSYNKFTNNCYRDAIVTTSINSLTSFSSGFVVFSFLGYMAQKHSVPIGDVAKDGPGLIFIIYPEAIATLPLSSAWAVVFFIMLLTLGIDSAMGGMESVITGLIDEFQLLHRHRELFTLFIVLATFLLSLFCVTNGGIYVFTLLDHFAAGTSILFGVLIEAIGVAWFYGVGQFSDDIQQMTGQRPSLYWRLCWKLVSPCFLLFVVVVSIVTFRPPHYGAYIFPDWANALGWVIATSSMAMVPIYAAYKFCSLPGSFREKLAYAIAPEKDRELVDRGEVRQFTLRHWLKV
Chain of Histamine H3 receptor (Q9Y5N1 whole entry): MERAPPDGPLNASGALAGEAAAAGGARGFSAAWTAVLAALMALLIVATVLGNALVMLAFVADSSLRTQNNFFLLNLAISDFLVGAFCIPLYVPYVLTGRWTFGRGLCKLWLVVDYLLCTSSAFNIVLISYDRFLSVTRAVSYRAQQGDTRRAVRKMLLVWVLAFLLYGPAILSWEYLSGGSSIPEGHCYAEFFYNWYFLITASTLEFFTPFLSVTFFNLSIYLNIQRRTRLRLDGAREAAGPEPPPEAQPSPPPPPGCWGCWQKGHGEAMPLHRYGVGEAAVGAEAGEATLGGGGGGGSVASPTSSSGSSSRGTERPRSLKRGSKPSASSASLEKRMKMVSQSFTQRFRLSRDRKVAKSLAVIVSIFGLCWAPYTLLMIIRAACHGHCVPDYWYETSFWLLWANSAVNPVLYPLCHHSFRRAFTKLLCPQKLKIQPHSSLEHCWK

As to `CCSc1ccc2c(c1)N(CCCN1CCN(C)CC1)c1ccccc1S2` [THIETHYLPERAZINE], the half-maximal activity concentration (AC50) was over 0.3 µM in [1]; 13 µM on Histamine H3 receptor; 1.2 µM in test [2]; 2.69 µM at Mu-type opioid receptor; 24.4 µM at Progesterone receptor; 0.0031 µM on D(3) dopamine receptor. Besides, the half-maximal activity concentration (AC50) in test [3] was over 30 µM; in test [4] it was 1.65 µM; in test [5] it was 3.87 µM; at Estrogen receptor, over 30 µM; in test [6] it was over 30 µM; in test [7] it was 4.88 µM. The AC50 in [8] turned out to be 26.5 µM.
